Patent publication US12065428B2, “Anti-viral compounds” (Aligos Therapeutics, Inc., priority 2021, dated 2024)
Where two headings read alike, the source gives them in different places.

Experiments:
[1] = target: T1, human cathepsin L (Homo sapiens, UniProt P07711); test: Cathepsin L assay (Z-FR-AMC fluorescence); assay type: biochemical; details: 10 pM human cathepsin L, 30 mins preincubation; class symbols
T1 construct: purchased R&D Systems
Protocol: For the cathepsin L assay, 10 pM of human cathepsin L (R&D Systems; Minneapolis, MN) was preincubated for 30 mins with test compounds. Reactions were initiated by the addition of a peptide substrate Z-FR-AMC (final concentration 2 μM, Anaspec; Fremont, CA). Fluorescence was measured at 2-minute intervals for 30 mins using a 355/460 excitation/emission filter module on an Envision plate reader (Perkin Elmer; Waltham, MA). The IC50 values were calculated for each assay by fitting the curves using a four-parameter equation in GraphPad Prism.

[2] = target: T2, SARS-Cov-2 3CLpro (Severe acute respiratory syndrome coronavirus 2, UniProt P0DTD1); test: SARS-Cov-2 3CLpro and HRV3C duplex assay (SAMDI-MS): 3CLpro; assay type: biochemical
T2 construct: SARS-Cov-2 3CLpro and HRV3C Duplex Assay

[3] = Cytotoxicity plates without OC43 virus in HeLa cells; assay type: cell-based; details: human, HeLa cells (uninfected), class symbols
Protocol: The human beta-coronavirus OC43 was purchased from ATCC (Manassas, VA) and propagated using HCT-8 human colorectal epithelial cells (ATCC). HeLa human cervical epithelial cells (ATCC) were used as susceptible host cell lines and were cultured using EMEM media, supplemented with 10% fetal bovine serum (FBS), 1% (v/v) penicillin/streptomycin (P/S), 1% (v/v) HEPES and 1% (v/v) cellgro Glutagro™ supplement (all Corning, Manassas, VA) at 37° C. For the OC43 antiviral assay, 1.5×10^4 HeLa cells per well were plated in 100 μL complete media in white 96-well plates with clear bottoms at 37° C. for up to 24 h to facilitate attachment and allow cells to recover from seeding stresses. Next day, the cell culture medium was removed. Serially diluted compounds in 100 μL assay media (EMEM, 2% FBS, 1% P/S, 1% cellgro Glutagro™ supplement, 1% HEPES) were added to the cells and incubated for 4H at 37° C. in a humidified 5% CO2 incubator. 100 μL of OC43 virus stock was diluted to a concentration known to produce optimal cytopathic effect, inducing 80-90% reduction in cell viability. 96-well plates were incubated for 6 (HeLa) days at 33° C.; each plate contains uninfected control wells as well as virus-infected wells that were not treated with compound. Cytotoxicity plates without the addition of OC43 virus were carried out in parallel. At the end of the incubation period, 100 μL cell culture supernatant was replaced with 100 μL cell-titer-glo reagent (Promega, Madison, WI) and incubated for at least 10 min at rt prior to measuring luminescence. Luminescence was measured on a Perkin Elmer (Waltham, MA) Envision plate reader. Antiviral % inhibition was calculated as follows: [(Compound treated cells infected sample)−(no compound infected control)]/[(Uninfected control)−(no compound infected control)]*100; Using GraphPad (San Diego, CA) prism software version 8.3.1, the antiviral dose-response plot was generated as a sigmoidal fit, log(inhibitor) vs response-variable slope (four parameters) model and the EC50 was calculated which is the predicted compound concentration corresponding to a 50% inhibition of the viral cytopathic effect.

[4] = system: human beta-coronavirus OC43; test: OC43 coronavirus assay in HeLa cells (cytopathic effect, cell-titer-glo); assay type: cell-based
[5] = system: SARS-CoV-2-GHB-03021/2020; test: microbe, parasite or virus in culture; assay type: cell-based
[6] = target: T3, HRV3C (Human rhinovirus 14, UniProt P03303); test: biochemical
T3 construct: SARS-Cov-2 3CLpro and HRV3C Duplex Assay

[7] = 3CLpro, duplex assay, 30 mins preincubation, class symbols, read-out: SARS-Cov-2 IC50
[8] = Betacoronavirus 1, 144 h, OC43 in HeLa cells, 6 days at 33° C., class symbols, read-out: EC50
[9] = Severe acute respiratory syndrome coronavirus 2, Vero C1008, 96 h, read-out: VeroE6 + CP (EC50)
[10] = Severe acute respiratory syndrome coronavirus 2, Vero C1008, 96 h; read-out: VeroE6 + CP (EC50)
[11] = HRV3C, duplex assay, 30 mins preincubation, class symbols, read-out: HRV IC50

T1 sequence (P07711 114-333): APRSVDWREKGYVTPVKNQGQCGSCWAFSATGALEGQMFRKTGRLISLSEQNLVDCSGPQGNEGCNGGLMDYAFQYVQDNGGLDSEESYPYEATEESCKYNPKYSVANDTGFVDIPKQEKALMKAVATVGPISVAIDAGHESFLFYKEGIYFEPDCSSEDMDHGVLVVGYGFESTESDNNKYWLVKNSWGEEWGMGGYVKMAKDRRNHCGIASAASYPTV
T3 sequence (P03303 1538-1719): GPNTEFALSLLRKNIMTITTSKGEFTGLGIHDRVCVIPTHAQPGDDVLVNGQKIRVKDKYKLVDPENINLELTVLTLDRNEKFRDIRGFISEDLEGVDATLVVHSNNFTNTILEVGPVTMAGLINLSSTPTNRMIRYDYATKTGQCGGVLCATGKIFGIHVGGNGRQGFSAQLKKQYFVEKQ

| Structure (SMILES) | IC50 [1] [µM] | IC50 [2, 7] [nM] | CC50 at 6 days [3] [µM] | EC50 [4, 8] [nM] | EC50 [5, 9] [nM] | EC50 [5, 10] [nM] | IC50 [6, 11] [nM] | EC50 ([4]; Betacoronavirus 1, OC43, HeLa) [nM] | IC50 [2] [nM] | IC50 ([6]; read-out: HRV IC50) [nM] | IC50 [6] [nM] |
| --- | --- | --- | --- | --- | --- | --- | --- | --- | --- | --- | --- |
| O=C(NC1CC1)C(=O)[C@H](C[C@@H]1CCNC1=O)NC(=O)[C@@H]1CC2(CCN1C(=O)[C@H]1C[C@@]13CCCc1ccccc13)CC2 (relative stereo) [Compound 34A, (S)—N—((S)-4-(cyclopropylamino)-3,4-dioxo-1-((S)-2-oxopyrrolidin-3-yl)butan-2-yl)-6-((1S*,2S*)-3′,4′-dihydro-2′H-spiro[cyclopropane-1,1′-naphthalene]-2-carbonyl)-6-azaspiro[2.5]octane-5-carboxamide] | 1 to 10 | 200 to 2000 | ≥ 100 | 100 to 1000 | 1000 to 10000 |  |  |  |  |  |  |
| O=C(NC1CC1)C(=O)[C@H](C[C@@H]1CCNC1=O)NC(=O)[C@@H]1CC2(CCN1C(=O)[C@@H]1C[C@]13CCCc1ccccc13)CC2 (relative stereo) [Compound 34B] | 1 to 10 | 20 to 200 | 10 to 100 | 100 to 1000 |  | < 1000 |  |  |  |  |  |
| Cn1ncc2c1CC(C(=O)N1CCC3(CC3)C[C@H]1C(=O)NC(C[C@@H]1CCNC1=O)C(=O)C(=O)NC1CC1)CC2 (stereo partly drawn) [Compound 14, (5S)—N-(4-(cyclopropylamino)-3,4-dioxo-1-((S)-2-oxopyrrolidin-3-yl)butan-2-yl)-6-(1-methyl-4,5,6,7-tetrahydro-1H-indazole-6-carbonyl)-6-azaspiro[2.5]octane-5-carboxamide] | ≥ 10 | 20 to 200 | ≥ 100 |  |  | 10000 to 100000 | 200 to 2000 | > 10000 |  |  |  |
| Cc1ccc2cc(C(=O)N3CCC4(CC4)C[C@H]3C(=O)N[C@@H](C[C@@H]3CCNC3=O)C(=O)C(=O)NC3CC3)sc2c1 [Compound 15, (3S)—N-cyclopropyl-3-{[(5S)-6-(6-methyl-1-benzothiophene-2-carbonyl)-6-azaspiro[2.5]octan-5-yl]formamido}-2-oxo-4-[(3S)-2-oxopyrrolidin-3-yl]butanamide] | 1 to 10 | < 20 | ≥ 100 | 100 to 1000 |  | < 1000 | 2000 to 20000 |  |  |  |  |
| O=C(NC1CC1)C(=O)[C@H](C[C@@H]1CCNC1=O)NC(=O)[C@@H]1CC2(CCN1C(=O)c1ccc3c(c1)OCO3)CC2 [Compound 16, (3S)-3-{[(5S)-6-(2H-1,3-benzodioxole-5-carbonyl)-6-azaspiro[2.5]octan-5-yl]formamido}-N-cyclopropyl-2-oxo-4-[(3S)-2-oxopyrrolidin-3-yl]butanamide] | ≥ 10 |  | ≥ 100 | 1000 to 10000 |  | 1000 to 10000 | 2000 to 20000 |  | 20 to 200 |  |  |
| Cn1nc(C(=O)N2CCC3(CC3)C[C@H]2C(=O)NC(C[C@@H]2CCNC2=O)C(=O)C(=O)NC2CC2)cc1-c1ccccc1 (stereo partly drawn) [Compound 17, (5S)—N-(4-(cyclopropylamino)-3,4-dioxo-1-((S)-2-oxopyrrolidin-3-yl)butan-2-yl)-6-(1-methyl-5-phenyl-1H-pyrazole-3-carbonyl)-6-azaspiro[2.5]octane-5-carboxamide] | ≥ 10 | 200 to 2000 | ≥ 100 | 1000 to 10000 |  | 1000 to 10000 | 2000 to 20000 |  |  |  |  |
| O=C(NC1CC1)C(=O)C(C[C@@H]1CCNC1=O)NC(=O)[C@@H]1CC2(CCN1C(=O)c1noc(-c3ccccc3)n1)CC2 (stereo partly drawn) [Compound 18, N-cyclopropyl-2-oxo-4-[(3S)-2-oxopyrrolidin-3-yl]-3-{[(5S)-6-(5-phenyl-1,2,4-oxadiazole-3-carbonyl)-6-azaspiro[2.5]octan-5-yl]formamido}butanamide] | ≥ 10 | 20 to 200 | ≥ 100 | 1000 to 10000 |  | 1000 to 10000 | 200 to 2000 |  |  |  |  |
| O=C(NC1CC1)C(=O)C(C[C@@H]1CCNC1=O)NC(=O)[C@@H]1CC2(CCN1C(=O)c1cc3cccc4c3n1CCC4)CC2 (stereo partly drawn) [Compound 19, 3-{[(5S)-6-{1-azatricyclo[6.3.1.0^{4,12}]dodeca-2,4(12),5,7-tetraene-2-carbonyl}-6-azaspiro[2.5]octan-5-yl]formamido}-N-cyclopropyl-2-oxo-4-[(3S)-2-oxopyrrolidin-3-yl]butanamide] | 1 to 10 | < 20 | ≥ 100 | 1000 to 10000 |  | < 1000 | 200 to 2000 |  |  |  |  |
| O=C(NC1CC1)C(=O)[C@H](C[C@@H]1CCNC1=O)NC(=O)[C@@H]1CC2(CCN1C(=O)c1cn3ccccc3n1)CC2 [Compound 20, (3S)—N-cyclopropyl-3-{[(5S)-6-{imidazo[1,2-a]pyridine-2-carbonyl}-6-azaspiro[2.5]octan-5-yl]formamido}-2-oxo-4-[(3S)-2-oxopyrrolidin-3-yl]butanamide] | ≥ 10 | 200 to 2000 | ≥ 100 |  |  | > 50000 |  | > 10000 |  | > 10000 |  |
| O=C(NC1CC1)C(=O)[C@H](C[C@@H]1CCNC1=O)NC(=O)[C@@H]1CC2(CCN1C(=O)c1ccc3ccccc3c1)CC2 [Compound 21, (S)-6-(2-naphthoyl)-N—((S)-4-(cyclopropylamino)-3,4-dioxo-1-((S)-2-oxopyrrolidin-3-yl)butan-2-yl)-6-azaspiro[2.5]octane-5-carboxamide] | 1 to 10 | < 20 | ≥ 100 | 100 to 1000 |  | < 1000 | 200 to 2000 |  |  |  |  |
| O=C(NC1CC1)C(=O)C(C[C@@H]1CCNC1=O)NC(=O)[C@@H]1CC2(CCN1C(=O)c1cc3ccccc3n1-c1ccccc1)CC2 (stereo partly drawn) [Compound 22, N-cyclopropyl-2-oxo-4-[(3S)-2-oxopyrrolidin-3-yl]-3-{[(5S)-6-(1-phenylindole-2-carbonyl)-6-azaspiro[2.5]octan-5-yl]formamido}butanamide] | ≥ 10 | < 20 | 10 to 100 | 100 to 1000 | < 1000 |  |  |  |  |  | 200 to 2000 |
| O=C(NC1CC1)C(=O)C(C[C@@H]1CCNC1=O)NC(=O)[C@@H]1CC2(CCN1C(=O)c1nc3ccccc3s1)CC2 (stereo partly drawn) [Compound 23, 3-{[(5S)-6-(1,3-benzothiazole-2-carbonyl)-6-azaspiro[2.5]octan-5-yl]formamido}-N-cyclopropyl-2-oxo-4-[(3S)-2-oxopyrrolidin-3-yl]butanamide] | ≥ 10 | 20 to 200 | ≥ 100 | 100 to 1000 |  | 1000 to 10000 | 2000 to 20000 |  |  |  |  |
| O=C(NC1CC1)C(=O)C(C[C@@H]1CCNC1=O)NC(=O)[C@@H]1CC2(CCN1C(=O)c1cnn(-c3ccccc3)n1)CC2 (stereo partly shown) [Compound 24] | ≥ 10 | 200 to 2000 | ≥ 100 | 1000 to 10000 |  | 1000 to 10000 | 200 to 2000 |  |  |  |  |
